From BindingDB's records for patent US10849881 (Hoffmann-La Roche, 2020) come the findings set out here.

This assay concerns the target Autotaxin (Homo sapiens, UniProt Q13822). In words: Enzyme Inhibition Assay. The procedure:
ATX inhibition was measured by a fluorescence quenching assay using a specifically labeled substrate analogue (MR121 substrate). To obtain this MR121 substrate, BOC and TBS protected 6-amino-hexanoic acid (R)-3-({2-[3-(2-{2-[2-(2-amino-ethoxy)-ethoxy]-ethoxy}-ethoxy)-propionylamino]-ethoxy}-hydroxy-phosphoryloxy)-2-hydroxy-propyl ester (Ferguson et al., Org Lett 2006, 8 (10), 2023) was labeled with MR121 fluorophore (CAS 185308-24-1, 1-(3-carboxypropyl)-11-ethyl-1,2,3,4,8,9,10,11-octahydro-dipyrido[3,2-b:2′,3′-i]phenoxazin-13-ium) on the free amine of the ethanolamine side and then, after deprotection, subsequently with tryptophan on the side of the aminohexanoic acid.Assay working solutions were made as follows:Assay buffer (50 mM Tris-HCl, 140 mM NaCl, 5 mM KCl, 1 mM CaCl2, 1 mM MgCl2, 0.01% Triton-X-100, pH 8.0;ATX solution: ATX (human His-tagged) stock solution (1.08 mg/mL in 20 mM bicine, pH 8.5, 0.15 M NaCl, 10% glycerol, 0.3% CHAPS, 0.02% NaN3), diluted to 1.4-2.5× final concentration in assay buffer;MR121 substrate solution: MR121 substrate stock solution (800 μM MR121 substrate in DMSO), diluted to 2-5× final concentration in assay buffer.

Molecules are shown by their SMILES.

In the case of `O=C(c1ccc2cc(Br)ccc2c1)N1C[C@@H]2[C@H](C1)[C@H]1CN(C(=O)c3ccc4[nH]nnc4c3)C[C@@H]21` [US10849881, Example 1.004], 17 nM corresponded to half-maximal inhibition (IC50).

The IC50 is the concentration at which inhibition is half-maximal. A low value points to greater potency.
